Measured values as given in patent US20230085307A1, “PYRIDAZINONE COMPOUND AND HERBICIDE” (NISSAN CHEMICAL CORPORATION, priority 2019, published 2023).

Tests used:
[1] = test system: southern crabgrass; test: Test Example 4: herbicidal effect by soil treatment (Table 19, symbol F); type: in vivo, southern crabgrass (Digitaria ciliaris); conditions: amount of applied herbicide 320 g/ha
Procedure, shortened: (§1)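 Soil-surface application: an emulsion agent diluted with water to the predetermined dose is sprayed uniformly over seeds lying under roughly 1.5 cm of sterilized diluvial soil. Boxes stay in a greenhouse at 25° C. to 30° C. Three weeks later, each species is graded on previously defined criteria.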

[2] = test system: lambsquarters; test: Test Example 5: herbicidal effect by foliage application, plastic box (Table 20, symbol O); type: in vivo, lambsquarters (Chenopodium album); conditions: 320 g/ha, evaluated three weeks after application
Procedure, shortened: (§2)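 Sow seeds spot-wise in sterilized diluvial soil; cover with ~1.5 cm soil. Grow 14 days in greenhouse, 25° C. to 30° C. Spray foliage with emulsion diluted to predetermined amount. Rate effect after 3 weeks.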

[3] = test system: Japanese bulrush; test: Test Example 1: herbicidal activity, application before weed generation under submerged conditions (Table 16, symbol B); type: in vivo, Japanese bulrush (Schoenoplectus juncoides)
Procedure, shortened: (§3)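 Alluvial soil was flooded to 4 cm depth, weed seeds were sown mixed and 2.5-leaf rice seedlings were transplanted. On sowing day, the compound's emulsion, diluted in water to a set dose, was applied to the water surface. Plants grew at 25–30 °C and were scored 0–5 after three weeks.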

[4] = test system: wild oat; test: Test Example 5: herbicidal effect by foliage application, plastic box (Table 20, symbol I); type: in vivo, wild oat (Avena fatua); conditions: 320 g/ha, evaluated three weeks after application
Procedure, shortened: as §2

[5] = test system: Chinese sprangletop; test: Test Example 3: herbicidal effect by foliage application, Wagner pot (Table 18, symbol D); type: in vivo, chinese sprangletop (Leptochloa chinensis)
Procedure, shortened: (§4)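 Plants were sown in alluvial soil held under 0.1–0.5 cm standing water and grown 14 days in a greenhouse at 25–30 °C. An emulsifiable formulation, water-diluted to the set dose, was then sprayed onto the foliage, and effects were scored three weeks later using previously defined criteria.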

[6] = test system: lambsquarters; test: Test Example 4: herbicidal effect by soil treatment (Table 19, symbol O); type: in vivo, lambsquarters (Chenopodium album); conditions: amount of applied herbicide 320 g/ha
Procedure, shortened: as §1

[7] = test system: Italian ryegrass; test: Test Example 4: herbicidal effect by soil treatment (Table 19, symbol K); type: in vivo, Italian ryegrass (Lolium multiflorum); conditions: amount of applied herbicide 320 g/ha
Procedure, shortened: as §1

[8] = test system: southern crabgrass; test: Test Example 5: herbicidal effect by foliage application, plastic box (Table 20, symbol F); type: in vivo, southern crabgrass (Digitaria ciliaris); conditions: 320 g/ha, evaluated three weeks after application
Procedure, shortened: as §2

[9] = test system: redroot pigweed; test: Test Example 4: herbicidal effect by soil treatment (Table 19, symbol N); type: in vivo, redroot pigweed (Amaranthus retroflexus); conditions: amount of applied herbicide 320 g/ha
Procedure, shortened: as §1

[10] = test system: windgrass; test: Test Example 4: herbicidal effect by soil treatment (Table 19, symbol L); type: in vivo, windgrass (Apera spica-venti); conditions: amount of applied herbicide 320 g/ha
Procedure, shortened: as §1

[11] = test system: chickweed; test: Test Example 5: herbicidal effect by foliage application, plastic box (Table 20, symbol P); type: in vivo, common chickweed (Stellaria media); conditions: 320 g/ha, evaluated three weeks after application
Procedure, shortened: as §2

[12] = test system: velvetleaf; test: Test Example 5: herbicidal effect by foliage application, plastic box (Table 20, symbol M); type: in vivo, velvetleaf (Abutilon theophrasti); conditions: 320 g/ha, evaluated three weeks after application
Procedure, shortened: as §2

[13] = test system: wild oat; test: Test Example 4: herbicidal effect by soil treatment (Table 19, symbol I); type: in vivo, wild oat (Avena fatua); conditions: amount of applied herbicide 320 g/ha
Procedure, shortened: as §1

[14] = test system: green foxtail; test: Test Example 5: herbicidal effect by foliage application, plastic box (Table 20, symbol G); type: in vivo, green foxtail (Setaria viridis); conditions: 320 g/ha, evaluated three weeks after application
Procedure, shortened: as §2

[15] = test system: barnyard grass; test: Test Example 3: herbicidal effect by foliage application, Wagner pot (Table 18, symbol H); type: in vivo, barnyard grass (Echinochloa crus-galli)
Procedure, shortened: as §4

[16] = test system: late watergrass; test: Test Example 1: herbicidal activity, application before weed generation under submerged conditions (Table 16, symbol A); type: in vivo, late watergrass (Echinochloa oryzicola)
Procedure, shortened: as §3

[17] = test system: green foxtail; test: Test Example 4: herbicidal effect by soil treatment (Table 19, symbol G); type: in vivo, green foxtail (Setaria viridis); conditions: amount of applied herbicide 320 g/ha
Procedure, shortened: as §1

[18] = test system: blackgrass; test: Test Example 4: herbicidal effect by soil treatment (Table 19, symbol J); type: in vivo, blackgrass (Alopecurus myosuroides); conditions: amount of applied herbicide 320 g/ha
Procedure, shortened: as §1

[19] = test system: barnyard grass; test: Test Example 4: herbicidal effect by soil treatment (Table 19, symbol H); type: in vivo, barnyard grass (Echinochloa crus-galli); conditions: amount of applied herbicide 320 g/ha
Procedure, shortened: as §1

[20] = test system: persian speedwell; test: Test Example 4: herbicidal effect by soil treatment (Table 19, symbol R); type: in vivo, Persian speedwell (Veronica persica); conditions: amount of applied herbicide 320 g/ha
Procedure, shortened: as §1

[21] = test system: oval-leafed pondweed; test: Test Example 1: herbicidal activity, application before weed generation under submerged conditions (Table 16, symbol C); type: in vivo, oval-leafed pondweed (Monochoria vaginalis)
Procedure, shortened: as §3

[22] = test system: chickweed; test: Test Example 4: herbicidal effect by soil treatment (Table 19, symbol P); type: in vivo, common chickweed (Stellaria media); conditions: amount of applied herbicide 320 g/ha
Procedure, shortened: as §1

[23] = test system: barnyard grass; test: Test Example 5: herbicidal effect by foliage application, plastic box (Table 20, symbol H); type: in vivo, barnyard grass (Echinochloa crus-galli); conditions: 320 g/ha, evaluated three weeks after application
Procedure, shortened: as §2

[24] = test system: windgrass; test: Test Example 5: herbicidal effect by foliage application, plastic box (Table 20, symbol L); type: in vivo, windgrass (Apera spica-venti); conditions: foliage application, 320 g/ha, evaluated three weeks after application
Procedure, shortened: as §2

[25] = test system: persian speedwell; test: Test Example 5: herbicidal effect by foliage application, plastic box (Table 20, symbol R); type: in vivo, Persian speedwell (Veronica persica); conditions: 320 g/ha, evaluated three weeks after application
Procedure, shortened: as §2

[26] = test system: Italian ryegrass; test: Test Example 5: herbicidal effect by foliage application, plastic box (Table 20, symbol K); type: in vivo, Italian ryegrass (Lolium multiflorum); conditions: 320 g/ha, evaluated three weeks after application
Procedure, shortened: as §2

[27] = test system: rice flat sedge; test: Test Example 3: herbicidal effect by foliage application, Wagner pot (Table 18, symbol E); type: in vivo, rice flat sedge (Cyperus iria)
Procedure, shortened: as §4

[28] = test system: blackgrass; test: Test Example 5: herbicidal effect by foliage application, plastic box (Table 20, symbol J); type: in vivo, blackgrass (Alopecurus myosuroides); conditions: 320 g/ha, evaluated three weeks after application
Procedure, shortened: as §2

[29] = test system: velvetleaf; test: Test Example 4: herbicidal effect by soil treatment (Table 19, symbol M); type: in vivo, velvetleaf (Abutilon theophrasti); conditions: amount of applied herbicide 320 g/ha
Procedure, shortened: as §1

[30] = test system: redroot pigweed; test: Test Example 5: herbicidal effect by foliage application, plastic box (Table 20, symbol N); type: in vivo, redroot pigweed (Amaranthus retroflexus); conditions: 320 g/ha, foliage application after 14-day growth, evaluated three weeks after application
Procedure, shortened: as §2

[31] = amount of applied herbicide 320 g/ha
[32] = foliage application after 14-day growth

SMILES: CCCOc1ccc2sc(-c3ccc(F)cc3OC)c(-c3c(O)c(C)nn(C)c3=O)c2c1 [2-173]
- F: southern crabgrass, herbicidal effect rating [1]: 0 (Herbicidal rate of 5% or less (almost no effect))
- herbicidal effect on O: lambsquarters (criteria 0-5) ([2]; foliage application): 1 (Herbicidal rate of 5% or more and less than 20%)
- Herbicidal effect on B: Japanese bulrush (grade 0-5) ([3]; 320 g/ha applied herbicide): 0 (Herbicidal rate of 5% or less (almost no effect))
- herbicidal effect on I: wild oat (criteria 0-5) ([4]; foliage application): 0 (Herbicidal rate of 5% or less (almost no effect))
- herbicidal effect on D: Chinese sprangletop [5, 31]: 2 (Herbicidal rate of 20% or more and less than 40%)
- O: lambsquarters, herbicidal effect rating [6]: 0 (Herbicidal rate of 5% or less (almost no effect))
- K: Italian ryegrass, herbicidal effect rating [7]: 0 (Herbicidal rate of 5% or less (almost no effect))
- herbicidal effect on F: southern crabgrass (criteria 0-5) ([8]; foliage application): 0 (Herbicidal rate of 5% or less (almost no effect))
- N: redroot pigweed, herbicidal effect rating [9]: 0 (Herbicidal rate of 5% or less (almost no effect))
- L: windgrass, herbicidal effect rating [10]: 0 (Herbicidal rate of 5% or less (almost no effect))
- herbicidal effect on P: chickweed (criteria 0-5) ([11]; foliage application): 5 (Herbicidal rate of 90% or more (almost completely withered))
- herbicidal effect on M: velvetleaf (criteria 0-5) ([12]; foliage application): 0 (Herbicidal rate of 5% or less (almost no effect))
- I: wild oat, herbicidal effect rating [13]: 0 (Herbicidal rate of 5% or less (almost no effect))
- herbicidal effect on G: green foxtail (criteria 0-5) ([14]; foliage application): 0 (Herbicidal rate of 5% or less (almost no effect))
- herbicidal effect on H: barnyard grass [15, 31]: 3 (Herbicidal rate of 40% or more and less than 70%)
- Herbicidal effect on A: late watergrass (grade 0-5) ([16]; 320 g/ha applied herbicide): 2 (Herbicidal rate of 20% or more and less than 40%)
- G: green foxtail, herbicidal effect rating [17]: 0 (Herbicidal rate of 5% or less (almost no effect))
- J: blackgrass, herbicidal effect rating [18]: 0 (Herbicidal rate of 5% or less (almost no effect))
- H: barnyard grass, herbicidal effect rating [19]: 0 (Herbicidal rate of 5% or less (almost no effect))
- R: persian speedwell, herbicidal effect rating [20]: 0 (Herbicidal rate of 5% or less (almost no effect))
- Herbicidal effect on C: oval-leafed pondweed (grade 0-5) ([21]; 320 g/ha applied herbicide): 0 (Herbicidal rate of 5% or less (almost no effect))
- P: chickweed, herbicidal effect rating [22]: 3 (Herbicidal rate of 40% or more and less than 70%)
- herbicidal effect on H: barnyard grass (criteria 0-5) ([23]; foliage application): 0 (Herbicidal rate of 5% or less (almost no effect))
- herbicidal effect on L: windgrass (criteria 0-5) [24]: 4 (Herbicidal rate of 70% or more and less than 90%)
- herbicidal effect on R: persian speedwell (criteria 0-5) ([25]; foliage application): 5 (Herbicidal rate of 90% or more (almost completely withered))
- herbicidal effect on K: Italian ryegrass (criteria 0-5) ([26]; foliage application): 0 (Herbicidal rate of 5% or less (almost no effect))
- herbicidal effect on E: rice flat sedge [27, 31]: 2 (Herbicidal rate of 20% or more and less than 40%)
- herbicidal effect on J: blackgrass (criteria 0-5) ([28]; foliage application): 4 (Herbicidal rate of 70% or more and less than 90%)
- M: velvetleaf, herbicidal effect rating [29]: 0 (Herbicidal rate of 5% or less (almost no effect))

SMILES: COc1ccc(-c2sc3c(Cl)cccc3c2-c2c(O)c(C)nn(C)c2=O)cc1 [4-023]
- Herbicidal effect by soil treatment, F: southern crabgrass [1]: 0 (Herbicidal rate of 5% or less (almost no effect))
- herbicidal effect on O: lambsquarters (evaluation grade 0-5) [2, 32]: 2 (Herbicidal rate of 20% or more and less than 40%)
- Herbicidal effect, B: Japanese bulrush [3, 31]: 0 (Herbicidal rate of 5% or less (almost no effect))
- herbicidal effect on I: wild oat (evaluation grade 0-5) [4, 32]: 0 (Herbicidal rate of 5% or less (almost no effect))
- herbicidal effect on Chinese sprangletop (D) ([5]; 320 g/ha): 3 (Herbicidal rate of 40% or more and less than 70%)
- Herbicidal effect by soil treatment, O: lambsquarters [6]: 3 (Herbicidal rate of 40% or more and less than 70%)
- Herbicidal effect by soil treatment, K: Italian ryegrass [7]: 5 (Herbicidal rate of 90% or more (almost completely withered))
- herbicidal effect on F: southern crabgrass (evaluation grade 0-5) [8, 32]: 0 (Herbicidal rate of 5% or less (almost no effect))
- Herbicidal effect by soil treatment, N: redroot pigweed [9]: 2 (Herbicidal rate of 20% or more and less than 40%)
- Herbicidal effect by soil treatment, L: windgrass [10]: 0 (Herbicidal rate of 5% or less (almost no effect))
- herbicidal effect on P: chickweed (evaluation grade 0-5) [11, 32]: 5 (Herbicidal rate of 90% or more (almost completely withered))
- herbicidal effect on M: velvetleaf (evaluation grade 0-5) [12, 32]: 3 (Herbicidal rate of 40% or more and less than 70%)
- Herbicidal effect by soil treatment, I: wild oat [13]: 0 (Herbicidal rate of 5% or less (almost no effect))
- herbicidal effect on G: green foxtail (evaluation grade 0-5) [14, 32]: 1 (Herbicidal rate of 5% or more and less than 20%)
- herbicidal effect on barnyard grass (H) ([15]; 320 g/ha): 5 (Herbicidal rate of 90% or more (almost completely withered))
- Herbicidal effect, A: late watergrass [16, 31]: 3 (Herbicidal rate of 40% or more and less than 70%)
- Herbicidal effect by soil treatment, G: green foxtail [17]: 0 (Herbicidal rate of 5% or less (almost no effect))
- Herbicidal effect by soil treatment, J: blackgrass [18]: 0 (Herbicidal rate of 5% or less (almost no effect))
- herbicidal effect on N: redroot pigweed (evaluation grade 0-5) [30]: 1 (Herbicidal rate of 5% or more and less than 20%)
- Herbicidal effect by soil treatment, H: barnyard grass [19]: 0 (Herbicidal rate of 5% or less (almost no effect))
- Herbicidal effect by soil treatment, R: persian speedwell [20]: 0 (Herbicidal rate of 5% or less (almost no effect))
- Herbicidal effect, C: oval-leafed pondweed [21, 31]: 0 (Herbicidal rate of 5% or less (almost no effect))
- Herbicidal effect by soil treatment, P: chickweed [22]: 5 (Herbicidal rate of 90% or more (almost completely withered))
- herbicidal effect on H: barnyard grass (evaluation grade 0-5) [23, 32]: 2 (Herbicidal rate of 20% or more and less than 40%)
- herbicidal effect on R: persian speedwell (evaluation grade 0-5) [25, 32]: 0 (Herbicidal rate of 5% or less (almost no effect))
- herbicidal effect on K: Italian ryegrass (evaluation grade 0-5) [26, 32]: 5 (Herbicidal rate of 90% or more (almost completely withered))
- herbicidal effect on rice flat sedge (E) ([27]; 320 g/ha): 5 (Herbicidal rate of 90% or more (almost completely withered))
- herbicidal effect on J: blackgrass (evaluation grade 0-5) [28, 32]: 0 (Herbicidal rate of 5% or less (almost no effect))
- Herbicidal effect by soil treatment, M: velvetleaf [29]: 0 (Herbicidal rate of 5% or less (almost no effect))
